# According to PMC12184417, “CDADC1 is a vertebrate-specific dCTP deaminase that metabolizes gemcitabine and decitabine to prevent cellular toxicity” (Proceedings of the National Academy of Sciences of the …, 2025):
# T1: DCTD (Homo sapiens, UniProt P32321)
# T1 sequence (P32321 1-178): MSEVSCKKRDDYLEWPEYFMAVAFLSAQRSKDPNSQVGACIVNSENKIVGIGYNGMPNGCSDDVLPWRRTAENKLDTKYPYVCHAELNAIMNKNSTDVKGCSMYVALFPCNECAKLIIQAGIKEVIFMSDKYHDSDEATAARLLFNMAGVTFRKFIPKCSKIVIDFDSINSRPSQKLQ
# B1: CDADC1 (Homo sapiens) (protein)
# chain: MKEAGQMQNLESARAGRSVSTQTGSMTGQIPRLSKVNLFTLLSLWMELFPAEAQRQKSQKNEEGKHGPLGDNEERTRVSTDKRQVKRTGLVVVKNMKIVGLHCSSEDLHAGQIALIKHGSRLKNCDLYFSRKPCSACLKMIVNAGVNRISYWPADPEISLLTEASSSEDAKLDAKAVERLKSNSRAHVCVLLQPLVCYMVQFVEETSYKCDFIQKITKTLPDANTDFYYECKQERIKEYEMLFLVSNEEMHKQILMTIGLENLCENPYFSNLRQNMKDLILLLATVASSVPNFKHFGFYRSNPEQINEIHNQSLPQEIARHCMVQARLLAYRTEDHKTGVGAVIWAEGKSRSCDGTGAMYFVGCGYNAFPVGSEYADFPHMDDKQKDREIRKFRYIIHAEQNALTFRCQEIKPEERSMIFVTKCPCDECVPLIKGAGIKQIYAGDVDVGKKKADISYMRFGELEGVSKFTWQLNPSGAYGLEQNEPERRENGVLRPVPQKEEQHQDKKLRLGIH
# notes: two deaminase domains CDD1 and CDD2
# How the values were obtained:
# DCTD = target: T1, DCTD; experiment: thin-layer chromatography of dCMP deamination; type: biochemical; conditions: allosteric activator; substrate dCMP; 37 C, 15 min; 50 mM Tris-HCl pH 7.5
# purified protein = substrate: Nc1ccn([C@H]2C[C@H](O)[C@@H](COP(=O)(O)OP(=O)(O)OP(=O)(O)O)O2)c(=O)n1; experiment: purified protein; type: biochemical, Homo sapiens; conditions: 50 mM Tris-HCl pH 7.5, 200 ng enzyme, sigmoidal fit slightly better than Michaelis-Menten
Molecule,thin-layer chromatography of dCMP deamination (DCTD),Km (purified protein) [µM]
Nc1ccn([C@H]2C[C@H](O)[C@@H](COP(=O)(O)OP(=O)(O)OP(=O)(O)O)O2)c(=O)n1 [dCTP],"DCTD converted dCMP to dUMP, with activity enhanced by the allosteric activator dCTP",
B1,,288.5 ± 30.6
